From patent US6703371B1, “Preparations for reducing oxygen consumption during physical efforts” (priority 1999, dated 2004)
Several values for one entry are separate records, joined by “and”; a condition that tells them apart may be missing. Equal entries are not always repeated. Where two headings read alike, the source gives them in different places.

Assays:
test subject [1] = assay type: in vivo, human; details: for change in vivo at 1 mg / change in vivo at 0.2 mg: Homo sapiens, 10 min
test subject [2] = details: 125 W
Excerpt: Unless otherwise indicated, the tests each took place in the morning in the fasting state, with mechanical power outputs of 100 W, 125 W or 150 W being required in each case from the test subject during one or more 10-minute test periods. A bicycle ergometer from Ergo Fit (Kaiserslautern, Germany) was used for this, and the required work was controlled at 60 pedal revolutions per minute in each case (controlled by a metronome from Seiko, Japan) by means of an eddy current brake. A heart rate computer from Polar Electro (Kempele, Finland) was used for continuous measurement of the heart rate; the atmospheric pressure was measured by an electronic barograph from Altitude Instrumentation (Paris, France) with a resolution of 0.1 mbar; the temperature and relative humidity were measured by an electronic thermohygrometer. The “average heart rates” indicated in the tables are in each case averages of the particular test period. The test subject received a high-carbohydrate diet mainly composed of pasta, and meat of young animals (veal, chicken, fish) in order to ensure an adequate supply of protein, throughout the series of tests. Only 1 test was carried out on each day.
Only 1 test was carried out on each day.

[3] = Oxygen-sparing action during physical work, general findings in the description; assay type: in vivo; details: result in words; for Oxygen demand after administration: even occasionally increased
test subject [4] = test: Bicycle ergometer test at 100 W: antagonism between inactive (1st dosage) and active (2nd dosage) substances (Example 1b); assay type: in vivo, human; details: for Change in the oxygen consumption after 2nd dosage: relative to after 1st dosage
Protocol: (§1) 13 to Mar. 6, 1999, with a subject in good physical condition under standard conditions. The subject was required each morning in the fasting state to perform successively (without interruption) at mechanical power output of 100 W, 125 W and 150 W, each lasting 10 minutes (total test duration 30 minutes each time). […] The heat production induced by mechanical exertion was calculated from the changes in the heart rate. An alternative possibility is also to determine it on the basis of the increase in humidity caused by the perspiration (the tests are carried out in a closed room) or reduction in weight (1 g of water=2.26 kJ). […] The values indicated in table la for the “average heart rate” are in each case averages over the 30-minute duration of the test; relative values for the oxygen consumption were established on the basis of the heart rates in a known manner, and the relative values indicated in Table 1a are based on the oxygen consumption on the first day (=100%); the values listed in the column “heat production” in Table 1a give the percentage deviation of the heat production, established on the basis of the perspiration, from the average from all the tests.
(§2) It is known that the oxygen uptake can be determined by measuring the heart rate as a function of the mechanical exertion. This ergometric method is based on establishing the oxygen transport volume through the action of the heart. Since the stroke volume is essentially constant irrespective of the intensity of the mechanical work, and the increased oxygen demand caused by the increase in work results in an increase in the heart rate, the quantity of the transported oxygen can be established by determining the additional heartbeats caused by the work. A 3-stage ergometer as recommended by the World Health Organization (WHO) is used in physiology research institutes and fitness clubs around the world.

test subject [5] = test: Bicycle ergometer test at 100 W: active ingredient, sucrose, further active ingredient, amino acid/vitamin product (Example 1c); assay type: in vivo, human; details: for Change in oxygen consumption after 2nd dos.: 2nd dosage 2.5 g of sucrose; for Change in oxygen consumption after 2nd dos. / Change in oxygen consumption after 4th dos. / Change in oxygen consumption after 3rd dos.: relative to preceding dosage; for Change in oxygen consumption after 4th dos.: 4th dosage Na glutamate/folic acid/cyanocobalamin/gelatin; for Average heart rate after 1st dos.: 10-minute test at 100 W
test subject [6] = test: as above; assay type: in vivo, human; details: for Average heart rate after 4th dos.: 4th dosage 100 mg of Na glutamate, 0.3 mg of folic acid, 5 μg of cyanocobalamin in 10 mg of gelatin; for Average heart rate after 2nd dos.: then 2nd dosage 2.5 g of sucrose
Protocol: as §1, §2

test subject [7] = test: Bicycle ergometer test at 100 W with gelatin products (Example 7); assay type: in vivo, human; details: for Average heart rate after 1st dos.: 100 W; for Average heart rate before: 10-minute control test at 100 W before the 1st dosage
Protocol: In tests analogous to Example 1, the tests indicated in Table 7 were carried out with gelatin products which were produced in analogy to Examples 3-5. After a warm-up period of 5 minutes in each case firstly the heartbeats were recorded at a mechanical power output of 100 W during a 10-minute control test, then the 1st dosage was administered and immediately thereafter the heart rate was measured in a 10-minute test period with a power output of 100 W. In the case of a 2nd dosage, this further administration and a second 10-minute test period take place with a power output of 100 W immediately following the first test period.

[8] = read-out: Change in the oxygen demand
[9] = read-out: Heat production (deviation from the average of all the tests)
[10] = 1st dosage 1 mg as dilute aqueous solution
[11] = 3rd dosage further 1 mg of active ingredient
[12] = 3rd dosage further 1 mg of active ingredient after sucrose
[13] = after 1 mg of active ingredient
[14] = 1st dosage 0.2 mg as dilute aqueous solution
[15] = 3rd dosage further 0.2 mg of active ingredient
[16] = 3rd dosage further 0.2 mg of active ingredient after sucrose
[17] = after 0.2 mg of active ingredient

SMILES | change in vivo at 1 mg (test subject [1]; [8]) [%] | Suitability for reducing the oxygen consumption during physical work [3] | Change in oxygen consumption after 2nd dos. (test subject [5]; 1 mg series) | Change in oxygen consumption after 4th dos. (test subject [5]; 1 mg series) [%] | Average heart rate after 1st dos. (test subject [5]; [10]) [per minute] | Change in oxygen consumption after 3rd dos. (test subject [5]; [11]) | Average heart rate after 4th dos. (test subject [6]; 1 mg series) [per minute] | Average heart rate after 3rd dos. (test subject [6]; [12]) [per minute] | Average heart rate after 2nd dos. (test subject [6]; [13]) [per minute] | change in vivo at 0.2 mg (test subject [1]; [8]) [%] | change in vivo at 0.2 mg (test subject [1]; [9]) [%] | Change in oxygen consumption after 2nd dos. (test subject [5]; 0.2 mg series) | Change in oxygen consumption after 4th dos. (test subject [5]; 0.2 mg series) [%] | Average heart rate after 1st dos. (test subject [5]; [14]) [per minute] | Change in oxygen consumption after 3rd dos. (test subject [5]; [15]) | Average heart rate after 4th dos. (test subject [6]; 0.2 mg series) [per minute] | Average heart rate after 3rd dos. (test subject [6]; [16]) [per minute] | Average heart rate after 2nd dos. (test subject [6]; [17]) [per minute] | Oxygen demand after administration [3] | Average heart rate before (test subject [7]) | also measured
CN1C(=O)CN=C(c2ccccc2)c2cc(Cl)ccc21 [diazepam] | -44 | suitable | +74% | −54 | 74.8 | +2% | 86.3 | 113.1 | 111.9 |  |  |  |  |  |  |  |  |  |  |  | change in vivo at 1 mg (test subject [1]; [9]): -50%; Average heart rate (test subject [2]; 1 mg, atmospheric pressure 1010.0 mbar): 80 per minute; Average heart rate (test subject [2]; 1 mg, atmospheric pressure 1010.8 mbar): 71 per minute; Average heart rate (test subject [2]; 1 mg, atmospheric pressure 1015.2 mbar): 77 per minute; Average heart rate (test subject [2]; 1 mg, atmospheric pressure 1015.9 mbar): 72 per minute; Average heart rate (test subject [2]; 1 mg, atmospheric pressure 1017.4 mbar): 74 per minute; Average heart rate (test subject [2]; 1 mg, atmospheric pressure 1017.5 mbar): 72 per minute; Average heart rate (test subject [2]; 1 mg, atmospheric pressure 1021.7 mbar): 76 per minute; Average heart rate (test subject [2]; 1 mg, atmospheric pressure 1026.3 mbar): 75 per minute; Average heart rate (test subject [2]; 2 mg, atmospheric pressure 1005.9 mbar): 76 per minute; Average heart rate (test subject [2]; 2 mg, atmospheric pressure 1007.8 mbar): 79 per minute; Effect of low atmospheric pressure on heart rate and oxygen consumption (test subject [2]; result in words): can be compensated; Change in the oxygen consumption after 2nd dosage (test subject [4]; 2nd dosage 1 mg, after 3 mg of bromazepam, 100 W): −65%; Change in the oxygen consumption after 2nd dosage (test subject [4]; 2nd dosage 1 mg, after 7 mg of oxazepam, 100 W): −72%; Change in the oxygen consumption after 2nd dosage (test subject [4]; 2nd dosage 1 mg, after 10 mg of nitrazepam, 100 W): −59%; Average heart rate after 2nd dosage (test subject [4]; 2nd dosage 1 mg, after 1st dosage of 3 mg of bromazepam, 100 W): 97.0 per minute; Average heart rate after 2nd dosage (test subject [4]; 2nd dosage 1 mg, after 1st dosage of 7 mg of oxazepam, 100 W): 89.4 per minute; Average heart rate after 2nd dosage (test subject [4]; 2nd dosage 1 mg, after 1st dosage of 10 mg of nitrazepam, 100 W): 102.1 per minute
COc1ccc2c(c1)[C@]13CCCC[C@@H]1[C@H](C2)N(C)CC3 [dextromethorphan] |  | suitable |  |  |  |  |  |  |  | -57 | -49 | +69% | −46 | 75.8 | +1% | 87.8 | 111 | 110.4 |  |  | Change in the oxygen consumption after 2nd dosage (test subject [4]; 2nd dosage 0.2 mg, after 6 mg of amitriptyline + 2.5 mg of chlordiazepoxide, 100 W): −81%; Average heart rate after 2nd dosage (test subject [4]; 2nd dosage 0.2 mg, after 1st dosage of 6 mg of amitriptyline + 2.5 mg of chlordiazepoxide, 100 W): 84.8 per minute
Cc1ncc2n1-c1ccc(Cl)cc1C(c1ccccc1F)=NC2 [midazolam] | -42 | suitable | +70% | −58 | 75.9 | +2% | 83.2 | 112.1 | 110.9 |  |  |  |  |  |  |  |  |  |  |  | Effect on the heart rate, the oxygen consumption and the heat production (test subject [1]; low dosage, 125 W, result in words): marked reduction in the heart rate, the oxygen consumption and the heat production
CN(C)CCCN1c2ccccc2CCc2ccccc21 [imipramine] |  |  |  |  |  |  |  |  |  |  |  |  |  |  |  |  |  |  | not reduced | 87.7 per minute | Average heart rate after 1st dosage (test subject [4]; 1st dosage 10 mg in 20 ml of water, 10-minute test at 100 W): 109.5 per minute; change in vivo at 10 mg (test subject [4]; Homo sapiens, 1st dosage 10 mg, 100 W, read-out: Change in the oxygen consumption after 1st dosage): 23%; Average heart rate after 1st dos. (test subject [7]; 1st dosage 10 mg): 100.2 per minute
CC(CN(C)C)CN1c2ccccc2CCc2ccccc21 (centres unmarked) [trimipramine] |  |  |  |  |  |  |  |  |  |  |  |  |  |  |  |  |  |  | not reduced | 79.8 per minute and 81.7 per minute | Average heart rate after 1st dos. (test subject [7]; 1st dosage 12.5 mg): 101.7 per minute and 97.0 per minute
COc1ccc2c3c1O[C@H]1[C@@H](O)C=C[C@H]4[C@@H](C2)N(C)CC[C@@]341 [codeine] |  | suitable |  |  |  |  |  |  |  | -29 | -27 | +69% | −50 | 73.0 | +2% | 82.9 | 108 | 107.3 |  |  | Change in the oxygen consumption after 2nd dosage (test subject [4]; 2nd dosage 0.5 mg, after 0.5 mg of flupentixol, 100 W): −57%; Change in the oxygen consumption after 2nd dosage (test subject [4]; 2nd dosage 0.5 mg, after 1 mg of lorazepam, 100 W): −59%; Change in the oxygen consumption after 2nd dosage (test subject [4]; 2nd dosage 0.5 mg, after 6 mg of amitriptyline + 2.5 mg of chlordiazepoxide, 100 W): −52%; Change in the oxygen consumption after 2nd dosage (test subject [4]; 2nd dosage 0.5 mg, after 7 mg of oxazepam, 100 W): −67%; Change in the oxygen consumption after 2nd dosage (test subject [4]; 2nd dosage 0.5 mg, after 10 mg of chlorprotixen, 100 W): −69%; Average heart rate after 2nd dosage (test subject [4]; 2nd dosage 0.5 mg, after 1st dosage of 0.5 mg of flupentixol, 100 W): 89.7 per minute; Average heart rate after 2nd dosage (test subject [4]; 2nd dosage 0.5 mg, after 1st dosage of 1 mg of lorazepam, 100 W): 91.8 per minute; Average heart rate after 2nd dosage (test subject [4]; 2nd dosage 0.5 mg, after 1st dosage of 6 mg of amitriptyline + 2.5 mg of chlordiazepoxide, 100 W): 86.5 per minute; Average heart rate after 2nd dosage (test subject [4]; 2nd dosage 0.5 mg, after 1st dosage of 7 mg of oxazepam, 100 W): 104.1 per minute; Average heart rate after 2nd dosage (test subject [4]; 2nd dosage 0.5 mg, after 1st dosage of 10 mg of chlorprotixen, 100 W): 90.0 per minute
